In the NIST ThermoML archive (doi:10.1021/je060271a):
“And” between values parts separate entries of the source, which are not always exact repeats. Equal values may be shown once.

Details: 343.15 K, Liquid, Vibrating tube method

CCCCCC(=O)OCC(COC(=O)CCCCC)(COC(=O)CCCCC)COC(=O)CCCCC [pentaerythritol tetrahexanoate]
Details | mass density
203.8 kPa | 957.2 kg/m3
203.9 kPa | 957.2 kg/m3 and 957.1 kg/m3
204 kPa | 957.1 kg/m3
204.1 kPa | 957.1 kg/m3 and 957.2 kg/m3
204.3 kPa | 957.2 kg/m3 and 957.3 kg/m3
204.5 kPa | 957.2 kg/m3 and 957.3 kg/m3
204.6 kPa | 957.2 kg/m3 and 957.3 kg/m3
204.8 kPa | 957.3 kg/m3 [middle of 4 runs]
205 kPa | 957.2 kg/m3 and 957.3 kg/m3
205.2 kPa | 957.2 kg/m3
205.3 kPa | 957.2 kg/m3 and 957.3 kg/m3
205.7 kPa | 957.2 kg/m3
205.9 kPa | 957.2 kg/m3
206 kPa | 957.2 kg/m3
206.2 kPa | 957.2 kg/m3
206.4 kPa | 957.2 kg/m3
206.6 kPa | 957.2 kg/m3 and 957.1 kg/m3
206.7 kPa | 957.3 kg/m3 and 957.2 kg/m3
206.9 kPa | 957.3 kg/m3 and 957.1 kg/m3
207.1 kPa | 957.2 kg/m3
207.2 kPa | 957.2 kg/m3
207.3 kPa | 957.2 kg/m3
207.4 kPa | 957.2 kg/m3
207.9 kPa | 957.3 kg/m3
208.3 kPa | 957.2 kg/m3
208.6 kPa | 957.2 kg/m3 and 957.1 kg/m3
208.8 kPa | 957.3 kg/m3 and 957.2 kg/m3
209 kPa | 957.2 kg/m3
209.2 kPa | 957.3 kg/m3 and 957.2 kg/m3
209.3 kPa | 957.2 kg/m3 and 957.3 kg/m3 and 957.1 kg/m3
209.5 kPa | 957.2 kg/m3
209.7 kPa | 957.2 kg/m3
209.9 kPa | 957.1 kg/m3 and 957.2 kg/m3
211.1 kPa | 957.2 kg/m3
212.5 kPa | 957.1 kg/m3
212.6 kPa | 957.2 kg/m3 and 957.3 kg/m3
212.7 kPa | 957.2 kg/m3
212.8 kPa | 957.1 kg/m3 and 957.2 kg/m3
213 kPa | 957.2 kg/m3
213.2 kPa | 957.2 kg/m3
213.3 kPa | 957.2 kg/m3
213.5 kPa | 957.3 kg/m3 and 957.2 kg/m3
213.7 kPa | 957.3 kg/m3 and 957.2 kg/m3 and 957.1 kg/m3
213.9 kPa | 957.2 kg/m3 and 957.1 kg/m3 and 957.4 kg/m3
214.2 kPa | 957.1 kg/m3
215.2 kPa | 957.2 kg/m3
215.3 kPa | 957.3 kg/m3
215.4 kPa | 957.2 kg/m3 and 957.1 kg/m3 and 957.3 kg/m3
215.6 kPa | 957.4 kg/m3 and 957.1 kg/m3 and 957.2 kg/m3
215.8 kPa | 957.3 kg/m3
215.9 kPa | 957.2 kg/m3
216 kPa | 957.3 kg/m3
216.1 kPa | 957.3 kg/m3 and 957.2 kg/m3
216.3 kPa | 957.2 kg/m3 and 957.3 kg/m3
216.5 kPa | 957.3 kg/m3 and 957.2 kg/m3
216.6 kPa | 957.3 kg/m3
216.8 kPa | 957.2 kg/m3 and 957.1 kg/m3
217.7 kPa | 957.2 kg/m3 and 957.3 kg/m3
218 kPa | 957.4 kg/m3
218.2 kPa | 957.1 kg/m3 and 957.2 kg/m3
218.6 kPa | 957.2 kg/m3
218.9 kPa | 957.2 kg/m3
219.1 kPa | 957.2 kg/m3
219.3 kPa | 957.3 kg/m3
219.4 kPa | 957.1 kg/m3 and 957.2 kg/m3 and 957.3 kg/m3
219.6 kPa | 957.4 kg/m3
219.8 kPa | 957.2 kg/m3
219.9 kPa | 957.1 kg/m3
220 kPa | 957.2 kg/m3
220.3 kPa | 957.2 kg/m3
220.5 kPa | 957.2 kg/m3
220.6 kPa | 957.1 kg/m3
220.8 kPa | 957.1 kg/m3
221 kPa | 957.1 kg/m3
221.2 kPa | 957.3 kg/m3
221.3 kPa | 957.2 kg/m3
222.7 kPa | 957.3 kg/m3
222.9 kPa | 957.1 kg/m3
223.1 kPa | 957.2 kg/m3
223.3 kPa | 957.3 kg/m3 and 957.4 kg/m3
223.4 kPa | 957.1 kg/m3 and 957.3 kg/m3 and 957.2 kg/m3
223.6 kPa | 957.2 kg/m3
223.8 kPa | 957.3 kg/m3
224.1 kPa | 957.2 kg/m3
224.3 kPa | 957.3 kg/m3 and 957.2 kg/m3
224.5 kPa | 957.2 kg/m3 and 957.3 kg/m3 and 957.1 kg/m3
224.7 kPa | 957.2 kg/m3
224.8 kPa | 957.3 kg/m3 and 957.2 kg/m3
225.2 kPa | 957.3 kg/m3
226.9 kPa | 957.2 kg/m3 and 957.3 kg/m3
227.1 kPa | 957.3 kg/m3
227.4 kPa | 957.2 kg/m3
231.3 kPa | 957.2 kg/m3 and 957.3 kg/m3
231.6 kPa | 957.3 kg/m3 and 957.1 kg/m3
232 kPa | 957.1 kg/m3 and 957.2 kg/m3
232.3 kPa | 957.3 kg/m3 and 957.2 kg/m3
232.5 kPa | 957.2 kg/m3
232.6 kPa | 957.3 kg/m3
232.7 kPa | 957.3 kg/m3
233 kPa | 957.2 kg/m3
233.2 kPa | 957.2 kg/m3
233.3 kPa | 957.2 kg/m3
233.5 kPa | 957.2 kg/m3
233.7 kPa | 957.3 kg/m3
233.9 kPa | 957.3 kg/m3
234 kPa | 957.2 kg/m3 and 957.3 kg/m3
234.4 kPa | 957.2 kg/m3
234.6 kPa | 957.1 kg/m3 and 957.4 kg/m3 and 957.3 kg/m3
234.7 kPa | 957.3 kg/m3
234.9 kPa | 957.2 kg/m3
235.1 kPa | 957.2 kg/m3
235.2 kPa | 957.2 kg/m3
235.6 kPa | 957.2 kg/m3
235.8 kPa | 957.1 kg/m3
236 kPa | 957.2 kg/m3
236.1 kPa | 957.2 kg/m3 and 957.3 kg/m3
236.3 kPa | 957.3 kg/m3
236.5 kPa | 957.1 kg/m3
236.6 kPa | 957.2 kg/m3
236.8 kPa | 957.2 kg/m3
237 kPa | 957.1 kg/m3 and 957.2 kg/m3 and 957.3 kg/m3
237.3 kPa | 957.3 kg/m3
237.5 kPa | 957.2 kg/m3
237.7 kPa | 957.2 kg/m3 and 957.4 kg/m3
237.9 kPa | 957.2 kg/m3
238 kPa | 957.3 kg/m3
238.2 kPa | 957.2 kg/m3
238.4 kPa | 957.3 kg/m3
238.6 kPa | 957.3 kg/m3
238.7 kPa | 957.3 kg/m3
238.9 kPa | 957.3 kg/m3
239.2 kPa | 957.1 kg/m3
239.3 kPa | 957.3 kg/m3
240.1 kPa | 957.3 kg/m3
240.3 kPa | 957.3 kg/m3
240.5 kPa | 957.3 kg/m3 and 957.2 kg/m3
240.6 kPa | 957.1 kg/m3
240.8 kPa | 957.3 kg/m3
241.2 kPa | 957.4 kg/m3
241.3 kPa | 957.3 kg/m3 and 957.2 kg/m3
241.5 kPa | 957.3 kg/m3 and 957.1 kg/m3
242 kPa | 957.3 kg/m3
242.2 kPa | 957.3 kg/m3
242.4 kPa | 957.2 kg/m3
242.6 kPa | 957.3 kg/m3
